Measured values from patent US12371428B2 (Exelixis, Inc., priority 2019, dated 2025).
Like-named read-outs stand apart in the source and are kept apart here.

Assays:
[1] = target: Mer (phospho-Mer, MERTK-transfected 293A cells) (Homo sapiens (Human), UniProt Q12866); experiment: Mer autophosphorylation ELISA in transient transfected 293A cells (Example H); assay type: cell-based; details: cellular activity; Mer autophosphorylation ELISA in transient transfected 293A cells
Procedure, shortened: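 IC50 from phospho-Mer ELISA of MERTK-transfected 293A cell lysates after 1 h treatment with serially diluted compound in serum-free medium.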

[2] = target: Human Mer (residues R557-E882 with H628Q and R794A) (Homo sapiens, UniProt Q12866); experiment: Human Mer kinase assay, 33P-phosphoryl transfer radiometric (Example C-1, KinaseProfiler); assay type: biochemical
Procedure: (§1) Kinase activity and compound inhibition were investigated using the ^33P-Phosphoryl transfer radiometric kinase assay, performed using the KinaseProfiler™ service of Eurofins Pharma Discovery Services UK Limited. Dose-response experiments were performed using nine compound concentrations in a 96-well microtiter plate. For each assay, all compounds were prepared to a 50× final assay concentration (50 μM) in 100% DMSO, then diluted in a half-log series, with the final top concentration at 1 μM. This working stock of the compound was added to the assay well as the first component in the reaction, followed by the remaining components as detailed in the following assay protocols below. The positive control wells (100% kinase activity) contain all components of the reaction including 2% DMSO (control for solvent effects), except the compound of interest. Blank wells contain all components of the reaction, with the reference inhibitor, staurosporine. This reference compound was used to abolish kinase activity and generated the 0% kinase activity base-line. IC50 values were calculated by nonlinear regression analysis using the sigmoidal dose-response (variable slope) curve fit on XLFit version 5.3 (ID Business Solutions).
Example C-1: Human Mer (residues R557-E882 with H628Q and R794A, 0.7 nM) was incubated with 8 mM MOPS pH 7.0, 0.2 mM EDTA, 30 mM NaCl, 250 μM […] (SEQ ID NO:2), 10 mM magnesium acetate, and 10 μM [γ-^33P-ATP]. The reaction was initiated by the addition of the Mg/ATP mix. After incubation for 40 minutes at room temperature, the reaction was stopped by the addition of phosphoric acid to a concentration of 0.5%. A reaction aliquot of 10 μL was then spotted onto a P30 filtermat and washed four times for 4 minutes in 0.425% phosphoric acid and once in methanol prior to drying and scintillation counting. Incorporated ^33P was measured using the Wallac Microbeta scintillation counter (Perkin Elmer).

[3] = target: Human Met (residues R974-S1390 with A1209G and V1290L) (Homo sapiens, UniProt P08581); experiment: Human Met kinase assay, 33P-phosphoryl transfer radiometric (Example D-1, KinaseProfiler); assay type: biochemical; details: protocol of Example D-1 (compounds 21-27, 41-47, 99, 104); read-out: c-Met IC50
Procedure: as §1
Example D-1: Human Met (residues R974-S1390 with A1209G and V1290L, 3.4 nM) was incubated with 8 mM MOPS pH 7.0, 0.2 mM EDTA, 250 µM […] (SEQ ID NO:3), 1 mM sodium orthovanadate, 5 mM […], 10 mM magnesium acetate, and 10 μM [γ-^33P-ATP]. The reaction was initiated by the addition of the Mg/ATP mix. After incubation for 40 minutes at room temperature, the reaction was stopped by the addition of phosphoric acid to a concentration of 0.5%. A reaction aliquot of 10 μL was then spotted onto a P30 filtermat and washed four times for 4 minutes in 0.425% phosphoric acid and once in methanol prior to drying and scintillation counting. Incorporated ^33P was measured using the Wallac Microbeta scintillation counter (Perkin Elmer).

[4] = target: Human KDR (residues 790-1356) (Homo sapiens (Human), UniProt P35968); experiment: Human KDR kinase assay, HTRF KinEase (Example B-2); assay type: biochemical; details: protocol of Example B-2
Procedure, shortened: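 Ten compound concentrations (3% DMSO final) were pre-plated, then KDR (790-1356) with biotinylated peptide in Mg/Mn/DTT buffer was added; ATP at Km (4.0 μM) started a 40 min room-temperature reaction. Detection used Eu-TK antibody and SA-XL665 in EDTA buffer; activity normalized to DMSO and reference inhibitor, IC50 by logistic fit.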

[5] = protocol of Example C-1 (compounds 21-27, 41-47, 99, 104)

Chain of Human KDR (residues 790-1356) (P35968 790-1356): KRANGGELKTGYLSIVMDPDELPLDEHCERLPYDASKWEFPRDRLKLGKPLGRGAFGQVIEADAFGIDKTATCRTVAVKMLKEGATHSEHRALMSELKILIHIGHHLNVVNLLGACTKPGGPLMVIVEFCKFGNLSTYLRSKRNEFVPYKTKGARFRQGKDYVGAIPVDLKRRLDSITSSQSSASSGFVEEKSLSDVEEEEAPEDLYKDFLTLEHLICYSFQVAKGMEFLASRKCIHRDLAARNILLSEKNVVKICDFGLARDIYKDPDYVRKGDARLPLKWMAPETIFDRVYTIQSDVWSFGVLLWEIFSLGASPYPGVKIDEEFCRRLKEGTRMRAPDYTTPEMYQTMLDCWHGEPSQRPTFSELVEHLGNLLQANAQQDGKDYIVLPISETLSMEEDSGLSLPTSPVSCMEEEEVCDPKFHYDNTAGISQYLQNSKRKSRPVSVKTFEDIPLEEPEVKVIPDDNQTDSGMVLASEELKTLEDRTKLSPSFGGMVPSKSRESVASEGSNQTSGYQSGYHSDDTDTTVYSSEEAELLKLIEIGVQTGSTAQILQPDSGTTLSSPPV
Chain of Human Met (residues R974-S1390 with A1209G and V1290L) (P08581 25-1390 limits assumed, stated change not applied): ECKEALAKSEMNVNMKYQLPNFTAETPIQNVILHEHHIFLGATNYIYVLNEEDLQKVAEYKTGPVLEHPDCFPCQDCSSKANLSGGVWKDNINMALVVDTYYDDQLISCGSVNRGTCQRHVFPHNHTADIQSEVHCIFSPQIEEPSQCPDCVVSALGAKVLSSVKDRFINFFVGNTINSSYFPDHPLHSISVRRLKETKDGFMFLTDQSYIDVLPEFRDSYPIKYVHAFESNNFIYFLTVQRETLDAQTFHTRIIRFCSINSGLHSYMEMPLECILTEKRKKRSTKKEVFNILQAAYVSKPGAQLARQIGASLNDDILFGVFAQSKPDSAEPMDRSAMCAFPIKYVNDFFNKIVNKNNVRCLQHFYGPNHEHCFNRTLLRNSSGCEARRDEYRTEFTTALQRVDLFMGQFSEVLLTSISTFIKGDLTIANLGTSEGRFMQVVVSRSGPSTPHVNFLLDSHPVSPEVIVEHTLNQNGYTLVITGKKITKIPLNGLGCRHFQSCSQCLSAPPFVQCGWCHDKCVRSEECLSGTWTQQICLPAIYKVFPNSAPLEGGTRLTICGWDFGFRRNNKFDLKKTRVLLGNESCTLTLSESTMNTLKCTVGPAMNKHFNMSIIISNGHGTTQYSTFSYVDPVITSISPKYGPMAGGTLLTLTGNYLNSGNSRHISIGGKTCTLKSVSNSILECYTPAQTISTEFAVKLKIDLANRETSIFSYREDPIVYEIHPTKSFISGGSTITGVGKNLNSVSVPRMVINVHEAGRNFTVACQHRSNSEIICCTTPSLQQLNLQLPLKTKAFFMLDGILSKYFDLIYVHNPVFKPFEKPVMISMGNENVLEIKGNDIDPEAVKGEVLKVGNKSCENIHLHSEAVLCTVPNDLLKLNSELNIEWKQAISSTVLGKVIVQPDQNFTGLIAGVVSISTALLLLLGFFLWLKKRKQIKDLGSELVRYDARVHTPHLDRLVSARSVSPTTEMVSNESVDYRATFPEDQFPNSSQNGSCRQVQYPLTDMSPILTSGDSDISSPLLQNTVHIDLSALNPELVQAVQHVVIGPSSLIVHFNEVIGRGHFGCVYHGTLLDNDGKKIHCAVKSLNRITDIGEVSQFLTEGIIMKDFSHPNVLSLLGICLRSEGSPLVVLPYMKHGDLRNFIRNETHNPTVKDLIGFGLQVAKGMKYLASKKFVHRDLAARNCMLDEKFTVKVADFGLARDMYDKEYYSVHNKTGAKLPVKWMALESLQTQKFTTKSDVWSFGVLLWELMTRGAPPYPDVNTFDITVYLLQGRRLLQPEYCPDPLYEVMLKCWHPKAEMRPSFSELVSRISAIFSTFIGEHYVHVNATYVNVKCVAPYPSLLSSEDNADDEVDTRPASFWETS
Chain of Human Mer (residues R557-E882 with H628Q and R794A) (Q12866 21-999 limits assumed, stated change not applied): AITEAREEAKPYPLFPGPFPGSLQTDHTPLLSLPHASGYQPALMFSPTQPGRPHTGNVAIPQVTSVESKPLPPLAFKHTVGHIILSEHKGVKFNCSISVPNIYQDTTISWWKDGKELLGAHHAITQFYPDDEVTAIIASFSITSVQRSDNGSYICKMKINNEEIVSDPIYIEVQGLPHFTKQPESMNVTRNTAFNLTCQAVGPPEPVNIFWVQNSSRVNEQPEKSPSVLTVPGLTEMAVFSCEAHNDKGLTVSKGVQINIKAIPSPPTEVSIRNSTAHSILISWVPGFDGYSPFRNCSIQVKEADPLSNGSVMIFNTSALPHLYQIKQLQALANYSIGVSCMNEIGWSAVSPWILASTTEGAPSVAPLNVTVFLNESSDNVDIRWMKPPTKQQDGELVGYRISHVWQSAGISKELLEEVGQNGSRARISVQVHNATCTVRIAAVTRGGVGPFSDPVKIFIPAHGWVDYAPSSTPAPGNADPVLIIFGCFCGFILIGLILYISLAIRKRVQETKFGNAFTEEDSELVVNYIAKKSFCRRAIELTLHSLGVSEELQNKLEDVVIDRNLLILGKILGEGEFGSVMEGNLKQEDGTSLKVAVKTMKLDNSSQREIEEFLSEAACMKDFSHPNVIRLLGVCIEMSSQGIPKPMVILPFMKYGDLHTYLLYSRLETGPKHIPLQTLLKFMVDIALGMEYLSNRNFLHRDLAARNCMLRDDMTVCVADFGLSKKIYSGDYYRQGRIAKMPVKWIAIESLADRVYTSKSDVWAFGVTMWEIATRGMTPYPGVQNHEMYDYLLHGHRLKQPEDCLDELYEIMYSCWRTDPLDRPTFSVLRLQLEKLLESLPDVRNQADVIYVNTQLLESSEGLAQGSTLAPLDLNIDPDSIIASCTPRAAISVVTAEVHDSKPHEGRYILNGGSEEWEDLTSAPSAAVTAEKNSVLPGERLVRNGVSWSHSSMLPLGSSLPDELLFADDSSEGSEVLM
Chain of Mer (phospho-Mer, MERTK-transfected 293A cells) (Q12866 21-999): as the sequence (Q12866 21-999 limits assumed, stated change not applied) above

In the case of `COc1cc2nccc(Oc3ccc(NC(=O)c4cn(C(C)C)c(C)c(-c5ccc(F)cc5)c4=O)cc3F)c2nc1OC` [Compound 21, N-[4-[(6,7-Dimethoxy-1,5-naphthyridin-4-yl)oxy]-3-fluorophenyl]-5-(4-fluorophenyl)-6-methyl-4-oxo-1-propan-2-ylpyridine-3-carboxamide], the IC50 [1] is reported as under 100 nM, the IC50 [2, 5] is reported as under 100 nM and the IC50 [3] is reported as under 100 nM.
With `COc1cc2nccc(Oc3ccc(NC(=O)c4cn(C(C)C)c(C)c(-c5ccc(F)cc5)c4=O)cc3F)c2cc1OC` [Compound 22, N-[4-(6,7-Dimethoxyquinolin-4-yl)oxy-3-fluorophenyl]-5-(4-fluorophenyl)-6-methyl-4-oxo-1-propan-2-ylpyridine-3-carboxamide] the IC50 [1] was under 100 nM, the IC50 [2, 5] was under 100 nM and the IC50 [3] was under 100 nM.
For `COc1cc2nccc(Oc3ccc(NC(=O)c4cn(C(C)C)c(C)c(-c5ccc(Cl)c(Cl)c5)c4=O)cc3F)c2cc1OC` [Compound 23, 5-(3,4-Dichlorophenyl)-N-[4-(6,7-dimethoxyquinolin-4-yl)oxy-3-fluorophenyl]-6-methyl-4-oxo-1-propan-2-ylpyridine-3-carboxamide], the IC50 [1] was under 100 nM, the IC50 [2] was 100 to 300 nM and the IC50 [3] was under 100 nM.
In the case of `COc1cc2nccc(Oc3ccc(NC(=O)c4cn(C(C)C)c(C)c(-c5ccc(F)c(Cl)c5)c4=O)cc3F)c2nc1OC` [Compound 24, 5-(3-Chloro-4-fluorophenyl)-N-[4-[(6,7-dimethoxy-1,5-naphthyridin-4-yl)oxy]-3-fluorophenyl]-6-methyl-4-oxo-1-propan-2-ylpyridine-3-carboxamide], the IC50 [1] is reported as under 100 nM, the IC50 [2, 5] is reported as under 100 nM and the IC50 [3] is reported as under 100 nM.
Compound `COc1cc2nccc(Oc3ccc(NC(=O)c4cn(C(C)C)c(C)c(-c5ccc(Cl)c(Cl)c5)c4=O)cc3F)c2nc1OC` [Compound 25, 5-(3,4-Dichlorophenyl)-N-[4-[(6,7-dimethoxy-1,5-naphthyridin-4-yl)oxy]-3-fluorophenyl]-6-methyl-4-oxo-1-propan-2-ylpyridine-3-carboxamide] has an IC50 [1] of under 100 nM, an IC50 [2, 5] of under 100 nM and an IC50 [3] of under 100 nM.
`COc1cc2nccc(Oc3ccc(NC(=O)c4cn(C5CCCC5)c(C)c(-c5ccc(F)cc5)c4=O)cc3F)c2nc1OC` [Compound 26] showed an IC50 [1] of under 100 nM, an IC50 [2, 5] of under 100 nM and an IC50 [3] of under 100 nM.
Work on `COc1cc2nccc(Oc3ccc(NC(=O)c4cn(C5CCCC5)c(C)c(-c5ccc(F)c(Cl)c5)c4=O)cc3F)c2nc1OC` [Compound 27, 5-(3-Chloro-4-fluorophenyl)-1-cyclopentyl-N-[4-[(6,7-dimethoxy-1,5-naphthyridin-4-yl)oxy]-3-fluorophenyl]-6-methyl-4-oxopyridine-3-carboxamide] yielded an IC50 [1] of under 100 nM, an IC50 [2, 5] of under 100 nM and an IC50 [3] of under 100 nM.
Work on `Cc1ccc(C(=O)Nc2ccc(Oc3ccnc4cc(O)cnc34)c(F)c2)c(=O)n1-c1ccc(F)cc1` [Compound 551, N-[3-Fluoro-4-[(7-hydroxy-1,5-naphthyridin-4-yl)oxy]phenyl]-1-(4-fluorophenyl)-6-methyl-2-oxopyridine-3-carboxamide] yielded an IC50 [4] of 100 to 300 nM and an IC50 [1] of under 100 nM.
For `COCCOc1cnc2c(Oc3ccc(NC(=O)c4ccc(C)n(-c5ccc(F)cc5)c4=O)cc3F)ccnc2c1` [Compound 552, N-[3-Fluoro-4-[[7-(2-methoxyethoxy)-1,5-naphthyridin-4-yl]oxy]phenyl]-1-(4-fluorophenyl)-6-methyl-2-oxopyridine-3-carboxamide], the IC50 [4] was under 100 nM and the IC50 [1] was under 100 nM.
For `COc1cc2nccc(Oc3ccc(NC(=O)c4cn(C)c(C(=O)O)c(-c5ccc(F)cc5)c4=O)cc3F)c2nc1OC` [Compound 553, 5-[[4-[(6,7-Dimethoxy-1,5-naphthyridin-4-yl)oxy]-3-fluorophenyl]carbamoyl]-3-(4-fluorophenyl)-1-methyl-4-oxopyridine-2-carboxylic acid], the IC50 [4] was over 300 nM and the IC50 [1] was 100 to 300 nM.
For `Cc1nc(C)c(-c2ccc(F)cc2)c(O)c1C(=O)Nc1ccc(Oc2ccnc3cc(O)cnc23)c(F)c1` [Compound 554, N-[3-Fluoro-4-[(7-hydroxy-1,5-naphthyridin-4-yl)oxy]phenyl]-5-(4-fluorophenyl)-4-hydroxy-2,6-dimethylpyridine-3-carboxamide], the IC50 [4] was under 100 nM and the IC50 [1] was under 100 nM.
`COCCOc1cnc2c(Oc3ccc(NC(=O)c4c(C)nc(C)c(-c5ccc(F)cc5)c4O)cc3F)ccnc2c1` [Compound 555, N-[3-Fluoro-4-[[7-(2-methoxyethoxy)-1,5-naphthyridin-4-yl]oxy]phenyl]-5-(4-fluorophenyl)-4-hydroxy-2,6-dimethylpyridine-3-carboxamide] gave an IC50 [4] of under 100 nM and an IC50 [1] of under 100 nM.
With `COc1cc2nccc(Oc3ccc(NC(=O)c4cn(C)c(CF)c(-c5ccc(F)cc5C)c4=O)cc3F)c2nc1OC` [Compound 556, N-[4-[(6,7-Dimethoxy-1,5-naphthyridin-4-yl)oxy]-3-fluorophenyl]-6-(fluoromethyl)-5-(4-fluoro-2-methylphenyl)-1-methyl-4-oxopyridine-3-carboxamide] the IC50 [4] was over 300 nM and the IC50 [1] was under 100 nM.
`COCCOc1nc2c(Oc3ccc(NC(=O)c4cn(C)c(CF)c(-c5ccc(F)cc5)c4=O)cc3F)ccnc2cc1OC` [Compound 557, N-[3-Fluoro-4-[[7-methoxy-6-(2-methoxyethoxy)-1,5-naphthyridin-4-yl]oxy]phenyl]-6-(fluoromethyl)-5-(4-fluorophenyl)-1-methyl-4-oxopyridine-3-carboxamide] gave an IC50 [4] of 100 to 300 nM and an IC50 [1] of under 100 nM.
`CCn1cc(C(=O)Nc2ccc(Oc3ccnc4cc(OC)c(OC)nc34)cc2)c(=O)c(-c2ccc(F)cc2)c1CF` [Compound 558, N-[4-[(6,7-Dimethoxy-1,5-naphthyridin-4-yl)oxy]phenyl]-1-ethyl-6-(fluoromethyl)-5-(4-fluorophenyl)-4-oxopyridine-3-carboxamide] was tested, and the IC50 [4] was over 300 nM and the IC50 [1] was under 100 nM.
Compound `CCn1cc(C(=O)Nc2ccc(Oc3ccnc4cc(OC)cnc34)c(F)c2)c(=O)c(-c2ccc(F)cc2)c1CF` [Compound 559, 1-Ethyl-N-[3-fluoro-4-[(7-methoxy-1,5-naphthyridin-4-yl)oxy]phenyl]-6-(fluoromethyl)-5-(4-fluorophenyl)-4-oxopyridine-3-carboxamide] has an IC50 [4] of over 300 nM and an IC50 [1] of under 100 nM.
`COc1cc2nccc(Oc3ccc(NC(=O)c4cn(C)c(CF)c(-c5ccc(F)cc5)c4=O)cc3)c2nc1OC` [Compound 560, N-[4-[(6,7-Dimethoxy-1,5-naphthyridin-4-yl)oxy]phenyl]-6-(fluoromethyl)-5-(4-fluorophenyl)-1-methyl-4-oxopyridine-3-carboxamide] gave an IC50 [4] of over 300 nM and an IC50 [1] of under 100 nM.
With `COc1ccc2nccc(Oc3ccc(NC(=O)c4cn(C)c(CF)c(-c5ccc(F)cc5)c4=O)cc3F)c2n1` [Compound 561, N-[3-Fluoro-4-[(6-methoxy-1,5-naphthyridin-4-yl)oxy]phenyl]-6-(fluoromethyl)-5-(4-fluorophenyl)-1-methyl-4-oxopyridine-3-carboxamide] the IC50 [4] was over 300 nM and the IC50 [1] was under 100 nM.
Compound `CCn1cc(C(=O)Nc2ccc(Oc3ccnc4cc(OC)c(OC)nc34)c(F)c2)c(=O)c(-c2ccc(F)cc2)c1CF` [Compound 562, N-[4-[(6,7-Dimethoxy-1,5-naphthyridin-4-yl)oxy]-3-fluorophenyl]-1-ethyl-6-(fluoromethyl)-5-(4-fluorophenyl)-4-oxopyridine-3-carboxamide] has an IC50 [4] of over 300 nM and an IC50 [1] of under 100 nM.
